Laboratory results: patent US9408828B2, “(+)-3′-angeloyloxy-4′-keto-3′,4′-dihydroseselin for treating inflammation” (Hong Kong Baptist University, priority 2014, dated 2016)

Tests used:
DSS-induced colitis = experiment: Chronic DSS-induced colitis in mice (body weight, DAI, colon length, histology); type: in vivo, C57BL/6 mice
Description: 6-week-old male C57BL/6 mice weighing 18-20 g are purchased from the Laboratory Animal Services Center, the Chinese University of Hong Kong. The study protocols are approved by the committee for Care of Laboratory Animals in the School of Chinese Medicine at the Hong Kong Baptist University. The animals are divided into six groups (8-10 each group): control group (mice received drinking water and control diet), DSS-treated group (mice received 2.0% DSS in drinking and control diet), positive control group (mice received 2.0% DSS in drinking and ip, 300 mg/kg/day of sulfasalazine), Pd-Ib treatment groups will be given different dosed of Pd-Ib (mice received 2.0% DSS in drinking and i.p., 30, 60, or 120 mg/kg/day, respectively). As depicted in experiment design shown in FIG. 9, the mice are given tap water for 6 days, and then be divided into 6 groups. DSS is dissolved in distilled water at a concentration of 2% (w/v) and administered to the mice. The first day and the last day of DSS treatment are designated as day 7 and day 11, respectively. Mice are marked and checked daily for body weight. On day 12, body weight, stool consistency, and gross bleeding of each mouse are assessed, and animals showing body weight loss, diarrhea, and bleeding are selected for further analysis. All colitis mice are then interventions once daily for seven days, with eight mice in each group. The DSS model group is administered with tap water as negative control; while sulfasalazine is given as positive control (i.p., 300 mg/kg/day) and Pd-Ib treatment groups are given different doses of Pd-Ib (i.p., 30, 60, or 120 mg/kg/day, respectively). In parallel, a vehicle control group is also set up to receive drinking tap water without DSS throughout the entire experimental period. On day 19, after the mice are killed under anesthesia induced by pentobarbital sodium (i.p., 0.65 g/kg), the length of the large intestine is measured. All portions are stored at −80° C. for biochemical assays. The DAI is determined by scoring changes in the body weight, diarrhea, colon length, and bleeding. In brief, body weight, stool consistency, colon length and bleeding in the stool are monitored daily for determination of DAI. At the end of the experiment, mice are killed, and the colon is dissected from each mouse, and the length of which is measured from the ileocecal junction to the anal verge. The colons are opened longitudinally, gently washed with ice-cold PBS, fixed in 4% paraformaldehyde overnight, and embedded in paraffin. Five-micro-meter sections are stained with hematoxylin/eosin according to a standard procedure to evaluate colonic damage. Colitis is induced in all groups except the control group. Pd-Ib and sulfasalazine are administered to mice from day 6 to day 12. The change in body weight is taken as the difference between the body weight before induction of colitis and that immediately before sacrifice on day 13. The DAI score is determined by combining scores of (i) body weight loss, (ii) stool consistency, and (iii) stool bleeding. On day 13, the mice are sacrificed, and the colon lengths are measured. Data are expressed as mean±SEM, n=8 (^###p<0.001, compared with the control group; *p<0.05, **p<0.01, ***p<0.001, compared with DSS model group).

TNF-α = experiment: ELISA of TNF-α in colon tissue, DSS-induced colitis; type: in vivo, C57BL/6 mice; conditions: compared with the DSS treatment group
Method: (§1) Colon levels of cytokines are assayed using commercially available ELISA kits. Briefly, colon samples are homogenized in phosphate buffer containing 0.05% Tween-20, 0.1 mM phenylmethylsulfonyl fluoride, 0.1 mM benzethonium chloride, 10 mM EDTA, and 20 IU aprotinin A. The homogenates are centrifuged at 16000 g at 4° C. for 15 min, and the supernatants are collected for the determination of levels of the cytokines, IL-6, IL-4, TNF-α, and IFN-γ, according to the manufacturer's protocols. The amount of protein in each sample is measured by the Bradford method, using bovine serum albumin as a standard. The levels of each cytokine are evaluated in each sample and expressed in […].
(§2) Colitis is induced in all groups except the control group. Pd-Ib and sulfasalazine are administered to mice from day 6 to day 12. On day 13, the mice are sacrificed, Data are expressed as mean±SEM, n=8 (*p<0.05, **p<0.01, ***p<0.001, compared with DSS model group).

IFN-γ = experiment: ELISA of IFN-γ in colon tissue, DSS-induced colitis; type: in vivo, C57BL/6 mice; conditions: compared with the DSS treatment group
Method: as §1, §2

IL-6 = experiment: ELISA of IL-6 in colon tissue, DSS-induced colitis; type: in vivo, C57BL/6 mice; conditions: compared with the DSS treatment group
Method: as §1, §2

RAW-Blue cells = experiment: Cell viability (MTT) assay; type: cell-based, murine; conditions: 24 hours
Method: Cells are cultured for 24 hours in the presence of Pd-Ib at the concentrations indicated, from 1.25-100 μg/mL. Cell viability is assessed using MTT assay. Data are derived from three independent experiments and presented as mean±SEM. “con” stands for the vehicle control group.
Cells (5×10^4) are cultured in 96-well plates for 24 hours. Then cells are cultured with various concentrations of Pd-Ib (1.25, 2.5, 5, 10, 20, 40, 80, 100 μg/mL) for 24 hours. After that, 10 μL of 5 mg/mL MTT is added to each well, and the cells are cultured in the dark for 3 hours. The medium is then discarded, and 100 μL of dimethyl sulfoxide (DMSO) is added into each well. After 15 min incubation, the optical density at 570 nm is read by using a micro-plate reader to determine the cell viability.

SMILES: C/C=C(\C)C(=O)OC1C(=O)c2c(ccc3ccc(=O)oc23)OC1(C)C (single isomer, unassigned; (+)) [Pd-Ib, (+)-3′-Angeloyloxy-4′-keto-3′,4′-dihydroseselin]
- body weight loss (DSS-induced colitis; 30 mg/kg/day): mildly effective in preventing body weight loss
- body weight loss (DSS-induced colitis; 60 mg/kg/day): mildly effective in preventing body weight loss
- body weight loss (DSS-induced colitis; 120 mg/kg/day, compared with DSS model group after 10 days (p<0.05)): recover the body weight loss significantly
- DAI score (DSS-induced colitis; 120 mg/kg/day, versus untreated mice (p<0.05)): significantly lower
- shortening of colon length (DSS-induced colitis; 30, 60, 120 mg/kg/day (p<0.05, p<0.001)): rectified after administration with Pd-Ib at indicated concentration levels in a dose-dependent manner
- histological manifestation of colon tissue sections (DSS-induced colitis; 30, 60, 120 mg/kg/day for seven days, compared with DSS group): far fewer infiltrating cells, a significantly lower degree of mucosal injury, and less edema
- production of TNF-α in colon tissue (TNF-α): greatly reduces the production
- production of IFN-γ in colon tissue (IFN-γ): greatly reduces the production
- production of IL-6 in colon tissue (IL-6): greatly reduces the production
- cytotoxic effect (RAW-Blue cells; 1.56 to 20 μg/mL): does not exhibit cytotoxic effect
- cell viability (RAW-Blue cells; 40, 80, and 100 μg/mL): cell viability is reduced
